SMILES strings stand for the structures.

Details in all cases: stereoisomer not certain
A short description of data set [1]: RP, Waters ACQUITY UPLC BEH C18, 100 × 2.1 mm, 1.7 µm, 0.2 mL/min, estimated dead time 1.1 min; A: water + 0.1% formic acid, pH 3; B: methanol + 0.1% formic acid, pH 3; gradient (min/%B) 0/5 5/5 25/100 30/100 30.1/5 35/5.
A short description of data set [2]: HILIC, Merck SeQuant ZIC-HILIC, 150 × 2.1 mm, 5 µm, 0.75 mL/min, estimated dead time 0.44 min; A: water + 10 mM ammonium formate, pH 6; B: 5% water + 95% acetonitrile + 10 mM ammonium formate, pH 6; gradient (min/%B) 0/95 5/95 20/57 25/57 30/95 40/95.
Data set [3] in a line: RP, Waters CORTECS T3, 100 × 2.1 mm, 2.7 µm, 0.2 mL/min, estimated dead time 1.1 min; A: water + 0.1% formic acid, pH 3; B: methanol + 0.1% formic acid, pH 3; gradient (min/%B) 0/5 5/5 25/95 25.1/100 35/100 35.1/5 45/5.
A short description of data set [4]: RP, Waters ACQUITY UPLC BEH C18, 100 × 2.1 mm, 1.7 µm, 0.1 mL/min, estimated dead time 2.2 min; A: water + 0.1% formic acid, pH 3; B: methanol + 0.1% formic acid, pH 3; gradient (min/%B) 0/5 5/5 25/95 25.1/100 35/100 35.1/5 45/5.
A short description of data set [5]: RP, Waters CORTECS T3, 100 × 2.1 mm, 2.7 µm, 0.3 mL/min, estimated dead time 0.73 min; A: water + 0.1% formic acid, pH 3; B: methanol + 0.1% formic acid, pH 3; gradient (min/%B) 0/0 1/0 6/5 30/100 35/100 35.1/0 40/0.
A short description of data set [6]: HILIC, Thermo Scientific Accucore HILIC, 100 × 2.1 mm, 2.6 µm, 0.5 mL/min, estimated dead time 0.44 min; A: water + 0.1% formic acid + 10 mM ammonium formate, pH 3; B: 5% water + 95% acetonitrile + 0.1% formic acid + 10 mM ammonium formate, pH 3; gradient (min/%B) 0/95 5/95 20/57 25/57 30/95 40/95.
Data set [7] in a line: RP, Waters CORTECS T3, 100 × 2.1 mm, 2.7 µm, 0.15 mL/min, estimated dead time 1.5 min; A: water + 0.1% formic acid, pH 3; B: methanol + 0.1% formic acid, pH 3; gradient (min/%B) 0/5 5/5 25/95 25.1/100 35/100 35.1/5 45/5.
Data set [8] can be described thus: HILIC, Merck SeQuant ZIC-HILIC, 150 × 2.1 mm, 5 µm, 0.75 mL/min, estimated dead time 0.44 min; A: water + 0.1% acetic acid + 10 mM ammonium acetate, pH 4; B: 5% water + 95% acetonitrile + 0.1% acetic acid + 10 mM ammonium acetate, pH 4; gradient (min/%B) 0/95 5/95 20/57 25/57 30/95 40/95.
Data set [9] in a line: RP, Waters CORTECS T3, 100 × 2.1 mm, 2.7 µm, 0.2 mL/min, estimated dead time 1.1 min; A: water + 0.1% formic acid, pH 3; B: methanol + 0.1% formic acid, pH 3; gradient (min/%B) 0/0 1/0 6/5 30/100 35/100 35.1/0 40/0.
Data set [10] can be described thus: RP, Waters ACQUITY UPLC BEH C18, 100 × 2.1 mm, 1.7 µm, 0.2 mL/min, estimated dead time 1.1 min; A: water + 0.025% formic acid + 20 mM ammonium acetate + 0.055% ammonium hydroxide, pH 7; B: methanol; gradient (min/%B) 0/5 5/5 25/100 30/100 30.1/5 35/5.
A short description of data set [11]: HILIC, Waters XBridge BEH Amide, 100 × 2.1 mm, 2.5 µm, 0.5 mL/min, estimated dead time 0.44 min; A: water + 0.1% acetic acid + 10 mM ammonium acetate, pH 4; B: 5% water + 95% acetonitrile + 0.1% acetic acid + 10 mM ammonium acetate, pH 4; gradient (min/%B) 0/95 5/95 20/57 25/57 30/95 40/95.
The nature of data set [12]: RP, Waters CORTECS T3, 100 × 2.1 mm, 2.7 µm, 0.25 mL/min, estimated dead time 0.88 min; A: water + 0.1% formic acid, pH 3; B: methanol + 0.1% formic acid, pH 3; gradient (min/%B) 0/5 5/5 25/95 25.1/100 35/100 35.1/5 45/5.
The nature of data set [13]: RP, Waters CORTECS T3, 100 × 2.1 mm, 2.7 µm, 0.3 mL/min, estimated dead time 0.73 min; A: water + 0.1% formic acid, pH 3; B: methanol + 0.1% formic acid, pH 3; gradient (min/%B) 0/0 5/0 25/100 30/100 30.1/0 35/0.
A short description of data set [14]: RP, Waters ACQUITY UPLC BEH C18, 100 × 2.1 mm, 1.7 µm, 0.1 mL/min, estimated dead time 2.2 min; A: water + 0.1% formic acid, pH 3; B: methanol + 0.1% formic acid, pH 3; gradient (min/%B) 0/5 5/5 25/100 30/100 30.1/5 35/5.
Data set [15] can be described thus: RP, Waters CORTECS T3, 100 × 2.1 mm, 2.7 µm, 0.25 mL/min, estimated dead time 0.88 min; A: water + 0.1% formic acid, pH 3; B: methanol + 0.1% formic acid, pH 3; gradient (min/%B) 0/0 1/0 6/5 30/100 35/100 35.1/0 40/0.
Data set [16] is described as follows: RP, Waters CORTECS T3, 100 × 2.1 mm, 2.7 µm, 0.15 mL/min, estimated dead time 1.5 min; A: water + 0.1% formic acid, pH 3; B: methanol + 0.1% formic acid, pH 3; gradient (min/%B) 0/0 1/0 6/5 30/100 35/100 35.1/0 40/0.
Data set [17] can be described thus: RP, Waters CORTECS T3, 100 × 2.1 mm, 2.7 µm, 0.1 mL/min, estimated dead time 2.2 min; A: water + 0.1% formic acid, pH 3; B: methanol + 0.1% formic acid, pH 3; gradient (min/%B) 0/5 5/5 25/95 25.1/100 35/100 35.1/5 45/5.
Data set [18] can be described thus: RP, Waters CORTECS T3, 100 × 2.1 mm, 2.7 µm, 0.1 mL/min, estimated dead time 2.2 min; A: water + 0.1% formic acid, pH 3; B: methanol + 0.1% formic acid, pH 3; gradient (min/%B) 0/0 1/0 6/5 30/100 35/100 35.1/0 40/0.
The nature of data set [19]: RP, Waters CORTECS T3, 100 × 2.1 mm, 2.7 µm, 0.2 mL/min, estimated dead time 1.1 min; A: water + 0.1% formic acid, pH 3; B: methanol + 0.1% formic acid, pH 3; gradient (min/%B) 0/0 1/0 6/5 30/100 35/100 35.1/0 40/0. The source holds these as a separate data set.
Data set [20] can be described thus: RP, Waters CORTECS T3, 100 × 2.1 mm, 2.7 µm, 0.3 mL/min, estimated dead time 0.73 min; A: water + 0.1% formic acid, pH 3; B: methanol + 0.1% formic acid, pH 3; gradient (min/%B) 0/0 1/0 6/5 30/100 35/100 35.1/0 40/0. This is another data set of the same source.
Data set [21] in a line: RP, Waters CORTECS T3, 100 × 2.1 mm, 2.7 µm, 0.3 mL/min, estimated dead time 0.73 min; A: water + 0.1% formic acid, pH 3; B: methanol + 0.1% formic acid, pH 3; gradient (min/%B) 0/5 5/5 25/95 25.1/100 35/100 35.1/5 45/5.
The nature of data set [22]: RP, Waters CORTECS T3, 100 × 2.1 mm, 2.7 µm, 0.3 mL/min, estimated dead time 0.73 min; A: water + 0.1% formic acid, pH 3; B: methanol + 0.1% formic acid, pH 3; gradient (min/%B) 0/5 5/5 25/100 30/100 30.1/5 35/5.
Data set [23] in a line: RP, Waters CORTECS T3, 100 × 2.1 mm, 2.7 µm, 0.3 mL/min, estimated dead time 0.73 min; A: water + 0.1% formic acid, pH 3; B: methanol + 0.1% formic acid, pH 3; gradient (min/%B) 0/0 5/0 25/100 30/100 30.1/0 35/0. This is another data set of the same source.

As for `O=C(O)c1ccc2ccccc2c1[O-]` [1-HYDROXY-2-NAPHTHOATE], the LC retention time in data set [1] was 21.1 min; in [2] it was 1.33 min; in [3], 26.8 min; in [4] it was 25.1 min; in data set [5], 21.7 min; in data set [6], 0.82 min. The LC retention time in data set [7] was 21.9 min; in data set [8] it was 1.27 min; in data set [9] it was 23.3 min; in data set [10], 14.1 min; in data set [11], 1.05 min; in data set [12], 19.9 min. Moreover, the LC retention time in data set [13] is 19.1 min.

As to `O=C([O-])CCc1ccccc1O` [3-(2-HYDROXYPHENYL)PROPANOATE], the LC retention time is 14.4 min in data set [1]; 1.85 min in data set [2]; 19.6 min in [3]; 18.3 min in data set [4]; 14.2 min in data set [5]; 0.87 min in data set [6]. The LC retention time in data set [7] was 15.5 min; in [8], 2.27 min; in [9] it was 15.9 min; in data set [10], 6.28 min; in [11] it was 1.75 min; in [12] it was 13.2 min. In addition, the LC retention time in [13] is 13.3 min.

Regarding `N[C@@H](Cc1ccc(O)c([N+](=O)[O-])c1)C(=O)O` [3-NITRO-L-TYROSINE], the LC retention time was 6.44 min in data set [1]; 11 min in data set [2]; 10.8 min in [14]; 12.6 min in data set [3]; 10.9 min in data set [4]; 7.13 min in data set [5]. Further, the LC retention time in [6] is 9.89 min; in data set [15] it was 7.83 min; in [7] it was 8.37 min; in data set [16] it was 10.4 min; in [8], 10.6 min; in data set [9] it was 8.96 min. Moreover, the LC retention time was 10.8 min in data set [17]; 6.31 min in [18]; 8.81 min in data set [19]; 6.9 min in [20]; 4.27 min in data set [21]; 4.34 min in data set [22]. For the same molecule, the results for the LC retention time in data set [12], in [13] and in data set [23] were 5.25 min, 8.03 min and 7.98 min, respectively.

As to `Cc1ncc(CO)c(C(=O)O)c1O` [4-PYRIDOXATE], the LC retention time in data set [1] is 3.4 min; in [2] it was 1.42 min; in [3] it was 10.4 min; in data set [4] it was 6.57 min; in data set [5], 4.57 min; in [6] it was 1.15 min. Besides, the LC retention time is 4.64 min in data set [7]; 1.41 min in data set [8]; 6.16 min in data set [9]; 3.81 min in [10]; 1.28 min in data set [11]; 2.84 min in data set [12]. The LC retention time in [13] was 4.79 min.

On to `O=C(O)CCCCCCCC(=O)O` [AZELAIC ACID], for which the LC retention time is 16.3 min in data set [1]; 7.14 min in data set [2]; 21.8 min in data set [3]; 19.9 min in [4]; 16.9 min in [5]; 1.1 min in [6]. Also, the LC retention time in data set [7] is 17.6 min; in [8], 9.72 min; in data set [9], 18.4 min; in [10], 1.41 min; in data set [12], 15.6 min; in data set [13], 15.4 min.

On to `O=c1[nH]cnc2c1ncn2C1OC(CO)C(O)C1O` (centres undefined) [INOSINE], for which the LC retention time in [1] was 3.3 min; in [2] it was 8.73 min; in [3], 10.8 min; in [4] it was 2.76 min; in [5], 5.37 min; in [6], 4.88 min. For the same molecule, the LC retention time in data set [7] is 4.68 min; in data set [8], 8.42 min; in data set [9], 6.93 min; in [10], 1.41 min; in data set [11], 7.97 min; in data set [12], 2.9 min.

Source of the values: the RepoRT retention time repository (doi:10.1016/j.jchromb.2020.122105).
